Measurements: patent publication US8632821B2, “Use of xenon for treating hypersensitivity to pain” (L'Air Liquide, Société Anonyme pour l'Etude et …, priority 2009, dated 2014)
“Also recorded” adds a separate entry of the source.

Test system: male Sprague-Dawley rats
Assay: Carrageenan model of inflammatory pain, paw-pressure vocalization test (Randall-Selitto)
Format: in vivo, rat
Protocol: In order to show the efficacy of the gas mixture according to the invention in the prevention of post-traumatic hyperalgesia, a model of inflammatory pain was used in rats, namely male Sprague-Dawley rats, in the context of preclinical studies.
An inflammatory product, carrageenan (0.2 ml of saline solution with 1% of carrageenan), was injected subcutaneously into the sole of the hind paw of a rat.
Two xenon concentrations by volume were tested, namely: • a ternary gas mixture made up of 25% Xe+25% N2+50% O2, and • a binary gas mixture made up of 50% Xe+50% O2.
The nociceptive threshold, i.e. the pain threshold, was evaluated using the paw-pressure vocalization test (Randall-Selitto), in which increasing pressures (measured in grams) are applied to the hind paw of the rat until the rat squeaks.
More specifically, on Day 0 (D0), the inflammatory product, i.e. the carrageenan (Car), was injected into a hind paw of the rats.
The exposure of the rats to the gases by inhalation begins 1 h 45 after the injection of Car and lasts for 1 h 45. The nociceptive threshold is evaluated 1 h 30, 2 h 30, 3 h 00, 3 h 30 and 4 h 30 after the injection of Car and then once a day until a return to the basal nociceptive threshold.

## [Xe] [xenon]
50% Xe+50% O2 (FIG. 2A) versus 25% Xe+25% N2+50% O2 (FIG. 1A), inflamed paw
  analgesic effect during administration, 50% content compared with 25% content: more effective
Inhaled xenon 25% or 50% by volume, exposure 1 h 45 starting 1 h 45 after carrageenan, inflamed paw
  analgesic effect during administration (nociceptive threshold): has an analgesic effect
Xenon at 25% (25% Xe+25% N2+50% O2) inhaled 1 h 45, control air/Car 4 days, FIG. 1A
  duration of delayed hyperalgesia on the inflamed paw: 2 days
Xenon at 50% (50% Xe+50% O2) inhaled 1 h 45, FIG. 2A
  delayed hyperalgesia on the inflamed paw: totally prevents
Xenon at 50% (50% Xe+50% O2) inhaled 1 h 45, FIG. 2B
  delayed hyperalgesia on the non-inflamed paw: totally prevents; also recorded: completely prevents
